The test system of experiment [1] is Human immunodeficiency virus 1. As to the kind of experiment: Antiviral activity against HIV1 infected in human 293T cells expressing VSV-G assessed as inhibition of viral p24 production at 10 uM after 48 hrs by ELISA. The experiment is classed as functional, organism-based.
The test system of the next experiment is HCT-8. Briefly: Cytotoxicity against human HCT8 cells at 10 uM after 96 hrs by MTT assay. The experiment is classed as functional, cell-based. On the technique in general: Formazan colour is commonly taken as a measure of viable cells.
For a further experiment, the system named is KETR3. As to the kind of experiment: Cytotoxicity against human Ketr3 cells at 10 uM after 96 hrs by MTT assay. The experiment is classed as functional, cell-based.
The test system of another experiment is Bel-7402. As to the kind of experiment: Cytotoxicity against human Bel7402 cells at 10 uM after 96 hrs by MTT assay. The experiment is classed as functional, cell-based.
Another experiment concerns MCF7. Briefly: Cytotoxicity against human MCF7 cells at 10 uM after 96 hrs by MTT assay. Type of experiment: functional, cell-based.
In another experiment the test system is A549. Briefly: Cytotoxicity against human A549 cells at 10 uM after 96 hrs by MTT assay. Type of experiment: functional, cell-based.
Experiment [2] in a line: Antiinflammatory activity in rat polymorphonuclear leukocytes assessed as inhibition of PAF-induced release of glucuronidase at 10 uM. The experiment is classed as functional.
Another experiment relates to BGC-823. As to the kind of experiment: Cytotoxicity against human BGC823 cells at 10 uM after 96 hrs by MTT assay. The experiment is classed as functional, cell-based.

The structures appear in SMILES notation. Active and inactive are the calls of the source. No cut-off for these calls is given here.

As usually defined, the inhibition is the change of the read-out against control, counted positive when it falls. As for `C[C@@H]1C(=O)O[C@H]2[C@H](O)[C@@]34[C@H]5C[C@@H](C(C)(C)C)[C@]36[C@@H](OC(=O)[C@@H]6O)O[C@@]4(C(=O)O5)[C@@]12O` [GINKOLIDE B], the inhibition entry in experiment [1] was “inactive”. Besides, the result in the experiment with HCT-8, with KETR3, in the experiment on Bel-7402, in the experiment on MCF7, with A549 and in the experiment on BGC-823 was inactive. The inhibition at 10 µM in experiment [2] is 78%.
`COC(=O)[C@]1(O)C[C@@H](O)[C@@H](O)[C@H](OC(=O)/C=C/c2ccc(O)c(O)c2)C1` [CHLOROGENIC ACID METHYL ESTER]: in experiment [1], the inhibition entry was “inactive”. In addition, the outcome in the experiment with HCT-8, in the experiment with KETR3, in the experiment with Bel-7402, in the experiment on MCF7, in the experiment with A549 and in the experiment on BGC-823 was inactive. For the same compound, in experiment [2], the inhibition at 10 µM is less than 30%.
On to `C=C[C@H]1[C@H](O[C@@H]2O[C@H](CO)[C@@H](O)[C@H](O)[C@H]2O)OC=C(C(=O)[O-])[C@H]1/C=C\c1ccc[n+]([C@H](Cc2ccccc2)C(=O)O)c1`, for which the inhibition result in experiment [1] was “inactive”. Also, the outcome with HCT-8, in the experiment with KETR3, in the experiment on Bel-7402, in the experiment with MCF7, in the experiment with A549 and with BGC-823 was inactive. Moreover, the inhibition at 10 µM in experiment [2] is less than 30%.
As to `O=C(O)c1cc(O[C@@H]2O[C@H](CO)[C@@H](O)[C@H](O)[C@H]2O)ccc1O`, the inhibition result in experiment [1] was “inactive”. Also, the result with HCT-8, in the experiment with KETR3, in the experiment with Bel-7402, in the experiment on MCF7, in the experiment on A549 and in the experiment with BGC-823 was inactive. In experiment [2], the inhibition at 10 µM is less than 30%.
Take `O=C(O)/C=C/c1ccc(O[C@@H]2O[C@H](CO)[C@@H](O)[C@H](O)[C@H]2O)c(O)c1`: the inhibition result in experiment [1] is “inactive”. Further, the result in the experiment with HCT-8, with KETR3, with Bel-7402, in the experiment with MCF7, with A549 and in the experiment on BGC-823 was inactive. Also, in experiment [2], the inhibition at 10 µM was less than 30%.
Turning to `COc1cc(C(=O)O)ccc1O[C@@H]1O[C@H](COC(=O)c2ccccc2)[C@@H](O)[C@H](O)[C@H]1O`, the inhibition result in experiment [1] is “inactive”. Moreover, the outcome in the experiment on HCT-8, in the experiment on KETR3, with Bel-7402, in the experiment on MCF7, with A549 and with BGC-823 was inactive. The inhibition at 10 µM in experiment [2] was less than 30%.
With `COC(=O)C1=CO[C@@H](O[C@@H]2O[C@H](CO)[C@@H](O)[C@H](O)[C@H]2O)[C@H]2[C@@H]1CC(=O)[C@@H]2C`, the inhibition result in experiment [1] was “inactive”. The result in the experiment on HCT-8, with KETR3, with Bel-7402, with MCF7, in the experiment on A549 and in the experiment on BGC-823 was inactive. The inhibition at 10 µM in experiment [2] was less than 30%.
As to `C=C[C@H]1[C@H](O[C@@H]2O[C@H](CO)[C@@H](O)[C@H](O)[C@H]2O)OC=C(C(=O)OC)[C@H]1/C=C/CC(=O)OC`, the inhibition entry in experiment [1] is “inactive”. Moreover, the outcome with HCT-8, in the experiment with KETR3, with Bel-7402, in the experiment with MCF7, with A549 and in the experiment with BGC-823 was inactive. The inhibition at 10 µM in experiment [2] was less than 30%.
Regarding `O=C(OCc1ccccc1)c1c(O)cccc1O[C@@H]1O[C@H](CO)[C@@H](O)[C@H](O)[C@H]1O`, the inhibition entry in experiment [1] was “inactive”. Moreover, the outcome with HCT-8, in the experiment on KETR3, in the experiment with Bel-7402, in the experiment on MCF7, in the experiment on A549 and in the experiment on BGC-823 was inactive. Besides, in experiment [2], the inhibition at 10 µM was less than 30%.
For `O=C(O)/C=C/c1ccc(O)c(O)c1` [CAFFEIC ACID], in experiment [1], the inhibition entry is “inactive”. The result in the experiment on HCT-8, with KETR3, with Bel-7402, in the experiment on MCF7, with A549 and in the experiment with BGC-823 was inactive. Besides, the inhibition at 10 µM in experiment [2] is 40.3%.
With `O=C(/C=C/c1ccc(O)c(O)c1)O[C@H]1[C@H](O)C[C@@](O)(C(=O)O)C[C@H]1O`, the inhibition result in experiment [1] is “inactive”. For the same compound, the outcome in the experiment on HCT-8, in the experiment with KETR3, in the experiment with Bel-7402, in the experiment on MCF7, with A549 and in the experiment with BGC-823 was inactive. Besides, the inhibition at 10 µM in experiment [2] is less than 30%.
Take `O=C(O)c1ccc(O)c(O)c1` [PROTOCATECHUIC ACID]: the inhibition result in experiment [1] is “inactive”. For the same compound, the result in the experiment on HCT-8, in the experiment with KETR3, in the experiment on Bel-7402, with MCF7, with A549 and in the experiment with BGC-823 was inactive. Moreover, the inhibition at 10 µM in experiment [2] was less than 30%.
On to `C=C[C@H]1[C@H](O[C@@H]2O[C@H](CO)[C@@H](O)[C@H](O)[C@H]2O)OC=C(C(=O)OC)[C@H]1/C=C/c1ccc[n+]([C@@H](C)C(=O)[O-])c1`, for which the inhibition entry in experiment [1] is “inactive”. Besides, the outcome with HCT-8, in the experiment on KETR3, with Bel-7402, in the experiment with MCF7, with A549 and with BGC-823 was inactive. Besides, the inhibition at 10 µM in experiment [2] was determined as 72.3%.
For `COC(=O)C1=CO[C@@H]2C[C@H]1C[C@@H]1C(C(=O)OC)=CO[C@@H](O[C@@H]3O[C@H](CO)[C@@H](O)[C@H](O)[C@H]3O)[C@@H]12`, in experiment [1], the inhibition result was “inactive”. Besides, the outcome with HCT-8, in the experiment on KETR3, with Bel-7402, in the experiment on MCF7, in the experiment with A549 and with BGC-823 was inactive. For the same compound, the inhibition at 10 µM in experiment [2] is less than 30%.
As to `O=C(/C=C/c1ccc(O)c(O)c1)O[C@@H]1C[C@](O)(C(=O)O)C[C@@H](O)[C@H]1O` [CHLOROGENIC ACID], the inhibition result in experiment [1] is “inactive”. Also, the result with HCT-8, in the experiment on KETR3, with Bel-7402, in the experiment with MCF7, with A549 and with BGC-823 was inactive. For the same compound, the inhibition at 10 µM in experiment [2] was less than 30%.
`C=C[C@H]1[C@H](O[C@@H]2O[C@H](CO)[C@@H](O)[C@H](O)[C@H]2O)OC=C(C(=O)OC)[C@H]1CC(=O)OC`: the inhibition result in experiment [1] is “inactive”. Moreover, the result in the experiment with HCT-8, in the experiment on KETR3, in the experiment with Bel-7402, with MCF7, in the experiment with A549 and in the experiment with BGC-823 was inactive. In addition, the inhibition at 10 µM in experiment [2] was less than 30%.
As to `C=C[C@H]1[C@H](O[C@@H]2O[C@H](CO)[C@@H](O)[C@H](O)[C@H]2O)OC=C(C(N)=O)[C@H]1/C=C/c1ccc[n+]([C@@H](CCC(=O)O)C(=O)[O-])c1`, the inhibition entry in experiment [1] is “inactive”. Besides, the result in the experiment with HCT-8, in the experiment with KETR3, with Bel-7402, in the experiment on MCF7, in the experiment on A549 and with BGC-823 was inactive. The inhibition at 10 µM in experiment [2] is less than 30%.
Regarding `C=C[C@H]1[C@H](O[C@@H]2O[C@H](CO)[C@@H](O)[C@H](O)[C@H]2O)OC=C(C(=O)[O-])[C@H]1/C=C/c1cc(C(=O)O)c[n+]([C@H](C(=O)O)[C@@H](C)CC)c1`, the inhibition result in experiment [1] was “inactive”. In addition, the outcome with HCT-8, with KETR3, with Bel-7402, in the experiment with MCF7, in the experiment with A549 and with BGC-823 was inactive. The inhibition at 10 µM in experiment [2] is less than 30%.
For the compound `Nc1ncnc2c1ncn2[C@@H]1O[C@H](CO)[C@@H](O)[C@H]1O` [ADENOSINE], in experiment [1], the inhibition result was “inactive”. Moreover, the outcome in the experiment with HCT-8, with KETR3, in the experiment with Bel-7402, in the experiment on MCF7, in the experiment with A549 and with BGC-823 was inactive. Besides, the inhibition at 10 µM in experiment [2] is less than 30%.

The values are drawn from ChEMBL document CHEMBL3091360, “Homosecoiridoid alkaloids with amino acid units from the flower buds of Lonicera japonica” (J Nat Prod, 2013).
